Reference: patent publication US20240336574A1 (LATIGO BIOTHERAPEUTICS, INC., priority 2021, published 2024)
Like-named read-outs stand apart in the source and are kept apart here.

Target: T1, recombinant human NaV1.8 stably transfected HEK cells (Homo sapiens, UniProt Q9Y5Y9)
T1 construct: expressed in transfected cells; host or cells: HEK cells, stably transfected
Experiment: Compound profiling on NaV1.8, human NaV1.8 cell line, SyncroPatch384PE automated patch clamp assay (Example 102, first set of compounds, Table 16)
Format: cell-based
Conditions: human NaV1.8 HEK cells, Table 16 (first set of compounds)
Experimental: Compound Profiling on NaV1.8—Human NaV1.8 Cell Line—SyncroPatch384PE Assay
Compounds were tested on recombinant human NaV1.8 stably transfected HEK cells using the SyncroPatch384PE system, an automated patch clamp device. Cells were cultured at 37° C./5% CO2 in DMEM medium supplemented with GlutaMAX I, NEAA 1%, FBS 10% and seeded in T175 flasks. Cells were cultured at 30° C. one day prior to recording sodium currents. On the day of the recordings, cells were detached with 0.05% Trypsin-EDTA, resuspended in serum free DMEM medium and placed into the SyncroPatch384PE 6° C. pre-cooled cell hotel and shaken at 200 rpm. Intracellular solution (IC) contained, in mM: 10, CsCl; 110, CsF; 20, EGTA; 10, HEPES. Extracellular solution (EC) contained, in mM: 140, NaCl; 4, KCl; 5, Glucose; 10, HEPES; 2, CaCl2; 1, MgCl2. Washing solution contained, in mM: 40, NMDG; 100, NaCl; 4, KCl; 10, Glucose; 10, HEPES; 5, CaCl2; 1, MgCl2.
Compounds were tested in triplicate in 0.1% DMSO and 0.030% Pluronic Acid. Compounds were diluted 1:3 in EC solution to create a 10-point concentration response curve, spanning a final concentration range from 20-0.001 μM in the assay plate. Each plate contained tetracaine and another tool compound as positive controls. Up to 8 compounds were tested on one plate. 250 μM tetracaine and 0.1% DMSO were used as high and low controls, respectively. Whole cell patch clamp recordings were conducted according to Nanion's standard procedure for SyncroPatch384PE®. Cells were held at a holding potential of −120 mV. A depolarization step to 10 mV for 30 ms was applied (P1 measurement), followed by a hyperpolarization step to −100 mV for 100 ms. An inactivation step at −40 mV for 10 sec was applied before stepping to −100 mV for 20 ms, followed by a step to 10 mV for 30 ms (P2 measurement) and then back to −100 mV for 30 ms. Sweep interval was 15 sec with a sampling rate of 10 kHz. Following establishment of the whole-cell configuration in EC, two washing steps with reference buffer were performed to stabilize the baseline. Compounds were then applied by the SynchroPatch into each well and the current was recorded for five minutes in EC, followed by application of tetracaine to achieve full block at the end of the experiment. The potency of the compounds was assessed on two read-outs, resting state block (P1 measurement) or inactivated state block (P2 measurement) to obtain IC50 values. Values were normalized to high (tetracaine) and low (DMSO) controls. The IC50 values are listed in Table 16 as follows: “A” represents an IC50 less than or equal to 20 nM, “B” represents an IC50 greater than 20 nM to less than or equal to 40 nM, “C” represents an IC50 greater than 40 nM to less than or equal to 200 nM, “D” represents an IC50 greater than 200 nM to less than or equal to 500 nM.

[1] = resting state block (P1 measurement), read-out: P1IC50
[2] = inactivated state block (P2 measurement), read-out: P2IC50

T1 sequence (Q9Y5Y9 whole entry): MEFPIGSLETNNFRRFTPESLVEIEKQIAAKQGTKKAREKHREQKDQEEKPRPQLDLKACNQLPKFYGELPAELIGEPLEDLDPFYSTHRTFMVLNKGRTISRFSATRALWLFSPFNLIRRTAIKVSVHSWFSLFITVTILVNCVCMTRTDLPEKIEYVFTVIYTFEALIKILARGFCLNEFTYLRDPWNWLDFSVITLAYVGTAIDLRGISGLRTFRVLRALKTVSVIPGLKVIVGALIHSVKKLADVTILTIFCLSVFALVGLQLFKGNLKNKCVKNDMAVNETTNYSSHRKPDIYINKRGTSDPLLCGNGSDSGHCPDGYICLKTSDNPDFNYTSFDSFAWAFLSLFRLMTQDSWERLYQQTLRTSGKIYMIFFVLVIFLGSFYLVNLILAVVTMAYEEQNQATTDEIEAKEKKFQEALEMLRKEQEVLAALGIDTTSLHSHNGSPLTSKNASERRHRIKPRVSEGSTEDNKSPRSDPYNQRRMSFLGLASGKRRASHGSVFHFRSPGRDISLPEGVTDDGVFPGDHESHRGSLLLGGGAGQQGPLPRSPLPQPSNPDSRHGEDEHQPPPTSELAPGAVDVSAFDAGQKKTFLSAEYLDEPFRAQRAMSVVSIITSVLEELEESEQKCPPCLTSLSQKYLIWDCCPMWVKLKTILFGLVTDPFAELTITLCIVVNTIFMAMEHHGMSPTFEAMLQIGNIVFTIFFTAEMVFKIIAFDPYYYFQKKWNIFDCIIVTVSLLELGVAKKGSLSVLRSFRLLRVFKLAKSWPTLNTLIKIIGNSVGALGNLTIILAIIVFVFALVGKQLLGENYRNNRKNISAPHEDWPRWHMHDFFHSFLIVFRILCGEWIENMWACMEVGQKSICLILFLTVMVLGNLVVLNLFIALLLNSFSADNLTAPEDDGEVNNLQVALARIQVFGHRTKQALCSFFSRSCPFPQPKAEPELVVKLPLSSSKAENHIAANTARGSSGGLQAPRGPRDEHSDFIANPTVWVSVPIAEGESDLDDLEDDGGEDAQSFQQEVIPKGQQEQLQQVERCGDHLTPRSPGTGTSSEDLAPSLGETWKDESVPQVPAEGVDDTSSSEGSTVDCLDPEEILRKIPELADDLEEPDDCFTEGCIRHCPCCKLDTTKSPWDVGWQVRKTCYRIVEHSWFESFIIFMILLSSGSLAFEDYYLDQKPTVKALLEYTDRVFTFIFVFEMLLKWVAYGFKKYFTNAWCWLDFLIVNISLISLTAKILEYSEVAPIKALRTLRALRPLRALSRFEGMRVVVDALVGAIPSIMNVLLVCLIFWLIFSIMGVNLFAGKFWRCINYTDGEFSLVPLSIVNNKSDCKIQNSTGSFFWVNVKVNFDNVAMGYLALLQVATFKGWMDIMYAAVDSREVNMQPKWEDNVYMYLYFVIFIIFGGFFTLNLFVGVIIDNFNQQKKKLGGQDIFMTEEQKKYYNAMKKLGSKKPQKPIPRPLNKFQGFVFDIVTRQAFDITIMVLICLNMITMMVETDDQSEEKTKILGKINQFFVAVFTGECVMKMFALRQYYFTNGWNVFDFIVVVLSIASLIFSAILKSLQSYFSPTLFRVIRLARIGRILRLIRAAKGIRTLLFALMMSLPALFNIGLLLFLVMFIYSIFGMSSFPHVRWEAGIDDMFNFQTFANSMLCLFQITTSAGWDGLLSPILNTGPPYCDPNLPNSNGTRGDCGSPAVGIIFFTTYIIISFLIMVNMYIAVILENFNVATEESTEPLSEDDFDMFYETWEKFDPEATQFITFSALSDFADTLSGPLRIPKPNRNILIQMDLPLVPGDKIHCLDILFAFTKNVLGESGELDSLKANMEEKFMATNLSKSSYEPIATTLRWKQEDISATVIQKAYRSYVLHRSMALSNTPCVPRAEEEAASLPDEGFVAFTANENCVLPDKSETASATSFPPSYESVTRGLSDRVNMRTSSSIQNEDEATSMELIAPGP

## Cc1c(C(F)(F)F)nnc(Oc2ccc(OC(F)(F)F)c(F)c2F)c1C(=O)Nc1cccc(S(C)(=N)=O)c1 (single isomer, unassigned) [Compound 1478, 3-[2,3-difluoro-4-(trifluoromethoxy)phenoxy]-5-methyl-N-[3-(methylsulfonimidoyl)phenyl]-6-(trifluoromethyl)pyridazine-4-carboxamide]
[1]
  IC50: ≤ 20 nM

## Cc1c(C(F)(F)F)nnc(OCC23CC(F)(C2)C3)c1C(=O)Nc1cccc(S(C)(=N)=O)c1 (centres unmarked) [Compound 1470, 3-[(3-fluoro-1-bicyclo[1.1.1]pentanyl)methoxy]-5-methyl-N-[3-(methylsulfonimidoyl)phenyl]-6-(trifluoromethyl)pyridazine-4-carboxamide]
[2]
  IC50: 200 to 500 nM
[1]
  IC50: 200 to 500 nM

## COc1nc(Br)ccc1Oc1ncc(C(F)(F)F)cc1C(=O)Nc1cccc(S(C)(=O)=O)c1 [Compound 1603]
[2]
  IC50: ≤ 20 nM
[1]
  IC50: ≤ 20 nM

## COc1cc(C#N)ccc1Oc1nnc(C(F)(F)F)c(C)c1C(=O)Nc1cccnc1 [Compound 1543, 3-(4-cyano-2-methoxy-phenoxy)-5-methyl-N-(3-pyridyl)-6-(trifluoromethyl)pyridazine-4-carboxamide]
[2]
  IC50: 40 to 200 nM
[1]
  IC50: 40 to 200 nM

## COc1c(Oc2nnc(C(F)(F)F)c(C)c2C(=O)Nc2ccn3nnnc3c2)ccc(F)c1F [Compound 1551, 3-(3,4-difluoro-2-methoxy-phenoxy)-5-methyl-N-(tetrazolo[1,5-a]pyridin-7-yl)-6-(trifluoromethyl)pyridazine-4-carboxamide]
[2]
  IC50: ≤ 20 nM
[1]
  IC50: ≤ 20 nM

## Cc1nc(Br)ccc1Oc1ncc(C(F)(F)F)cc1C(=O)Nc1cccc(S(C)(=N)=O)c1 (centres unmarked) [Compound 1684]
[2]
  IC50: ≤ 20 nM
[1]
  IC50: ≤ 20 nM

## COc1cc(C#N)ccc1Oc1nc(C(F)(F)F)cc(C)c1C(=O)Nc1cccc([S@](C)(=N)=O)c1 [Compound 1730, (R)-2-(4-cyano-2-methoxyphenoxy)-4-methyl-N-(3-(S-methylsulfonimidoyl)phenyl)-6-(trifluoromethyl)nicotinamide]
[2]
  IC50: ≤ 20 nM
[1]
  IC50: ≤ 20 nM

## COc1nc(C#N)ccc1Oc1ncc(C(F)(F)F)cc1C(=O)Nc1cccc([S@](C)(=N)=O)c1 [Compound 1655]
[2]
  IC50: ≤ 20 nM
[1]
  IC50: ≤ 20 nM

## Cc1nc(C#N)ccc1Oc1ncc(C(F)(F)F)cc1C(=O)Nc1cccc(S(C)(=O)=O)c1 [Compound 1693]
[2]
  IC50: ≤ 20 nM
[1]
  IC50: ≤ 20 nM

## Cc1cc(Br)ccc1Oc1nnc(C(F)(F)F)c(C)c1C(=O)Nc1ccc(C(N)=O)cc1 [Compound 1402]
[2]
  IC50: 20 to 40 nM
[1]
  IC50: 20 to 40 nM

## Cc1cc(F)ccc1COc1ncc(C(F)(F)F)cc1C(=O)Nc1cccc(S(C)(=O)=O)c1 [Compound 1596]
[2]
  IC50: 200 to 500 nM
[1]
  IC50: 200 to 500 nM

## COc1c(Oc2nnc(C(F)(F)F)c(C)c2C(=O)Nc2cccc(S(C)(=N)=O)c2)ccc(F)c1F (single isomer, unassigned) [Compound 1474, 3-(3,4-difluoro-2-methoxy-phenoxy)-5-methyl-N-[3-(methylsulfonimidoyl)phenyl]-6-(trifluoromethyl)pyridazine-4-carboxamide]
[1]
  IC50: ≤ 20 nM

## COc1ccc(-c2nnc(Oc3ccc(C#N)cc3OC)c(C(=O)Nc3cccc([S@](C)(=N)=O)c3)c2C)cn1 [Compound 1733, (R)-3-(4-cyano-2-methoxyphenoxy)-6-(6-methoxypyridin-3-yl)-5-methyl-N-(3-(S-methylsulfonimidoyl)phenyl)pyridazine-4-carboxamide]
[2]
  IC50: 40 to 200 nM
[1]
  IC50: 200 to 500 nM

## CS(=N)(=O)c1cccc(NC(=O)c2cc(C(F)(F)F)cnc2Oc2ccc(OCc3ccccc3)cc2)c1 (centres unmarked) [Compound 1587]
[2]
  IC50: 40 to 200 nM
[1]
  IC50: 40 to 200 nM

## Cc1nc(F)ccc1Oc1ncc(C(F)(F)F)c(C)c1C(=O)Nc1cccc([S@](C)(=N)=O)c1 [Compound 1559, (R)-2-((6-fluoro-2-methylpyridin-3-yl)oxy)-4-methyl-N-(3-(S-methylsulfonimidoyl)phenyl)-5-(trifluoromethyl)nicotinamide]
[2]
  IC50: ≤ 20 nM
[1]
  IC50: ≤ 20 nM

## COc1cc(F)c(F)cc1Oc1ncc(C(F)(F)F)cc1C(=O)Nc1cccc(S(C)(=N)=O)c1 (centres unmarked) [Compound 1617]
[2]
  IC50: 20 to 40 nM
[1]
  IC50: 20 to 40 nM

## Cc1nc(C(F)(F)F)ccc1Oc1nnc(C(F)(F)F)c(C)c1C(=O)Nc1cccc(S(C)(=O)=O)c1 [Compound 1468, N-(3-methanesulfonylphenyl)-5-methyl-3-{[2-methyl-6-(trifluoromethyl)pyridin-3-yl]oxy}-6-(trifluoromethyl)pyridazine-4-carboxamide]
[2]
  IC50: ≤ 20 nM
[1]
  IC50: ≤ 20 nM

## Cc1cc(F)ccc1Oc1nnc(C(F)(F)F)c(C2CC2)c1C(=O)Nc1cccc([S@@](C)(=N)=O)c1 [Compound 1519, (S)-5-cyclopropyl-3-(4-fluoro-2-methylphenoxy)-N-(3-(S-methylsulfonimidoyl)phenyl)-6-(trifluoromethyl)pyridazine-4-carboxamide]
[2]
  IC50: 20 to 40 nM
[1]
  IC50: 20 to 40 nM

## Cn1ccc2c(Oc3ncc(C(F)(F)F)cc3C(=O)Nc3cccc(S(C)(=O)=O)c3)cccc21 [Compound 1624]
[2]
  IC50: 200 to 500 nM
[1]
  IC50: 200 to 500 nM

## COc1ccc(Oc2nnc(C(F)(F)F)c(C)c2C(=O)Nc2cccc(S(C)(=N)=O)c2)c(C)n1 (single isomer, unassigned) [Compound 1508, N-{3-[imino(methyl)oxo-λ^6-sulfanyl]phenyl}-3-[(6-methoxy-2-methylpyridin-3-yl)oxy]-5-methyl-6-(trifluoromethyl)pyridazine-4-carboxamide]
[2]
  IC50: 40 to 200 nM
[1]
  IC50: 40 to 200 nM

## Cc1cc(F)ccc1Oc1nnc(C#N)c(C)c1C(=O)Nc1cccc(S(C)(=N)=O)c1 (centres unmarked) [Compound 1432, 6-cyano-3-(4-fluoro-2-methyl-phenoxy)-5-methyl-N-[3-(methylsulfonimidoyl)phenyl]pyridazine-4-carboxamide]
[2]
  IC50: 200 to 500 nM
[1]
  IC50: 200 to 500 nM

## COc1c(Oc2ncc(Br)cc2C(=O)Nc2ccc(C(N)=O)cc2)ccc(F)c1F [Compound 1569, 5-bromo-N-(4-carbamoylphenyl)-2-(3,4-difluoro-2-methoxy-phenoxy)pyridine-3-carboxamide]
[2]
  IC50: ≤ 20 nM
[1]
  IC50: ≤ 20 nM

## COc1cc(C#N)ccc1Oc1nnc(C(F)(F)F)c(C)c1C(=O)Nc1ccc[n+]([O-])c1 [Compound 1544, 3-(4-cyano-2-methoxy-phenoxy)-5-methyl-N-(1-oxidopyridin-1-ium-3-yl)-6-(trifluoromethyl)pyridazine-4-carboxamide]
[2]
  IC50: 20 to 40 nM
[1]
  IC50: 40 to 200 nM

## COc1ccc(-c2nnc(Oc3ccc(C#N)cc3OC)c(C(=O)Nc3cccc([S@@](C)(=N)=O)c3)c2C)cc1 [Compound 1536, 3-(4-cyano-2-methoxyphenoxy)-N-{3-[(S)-imino(methyl)oxo-λ^6-sulfanyl]phenyl}-6-(4-methoxyphenyl)-5-methylpyridazine-4-carboxamide]
[2]
  IC50: 40 to 200 nM
[1]
  IC50: 40 to 200 nM

## COc1cc(Oc2ncc(C(F)(F)F)cc2C(=O)Nc2cccc(S(C)(=N)=O)c2)ccc1C#N (centres unmarked) [Compound 1645]
[2]
  IC50: 200 to 500 nM
[1]
  IC50: 200 to 500 nM

## CS(=O)(=O)c1cccc(NC(=O)c2cc(C(F)(F)F)cnc2Oc2cccc(OC(F)(F)F)c2)c1 [Compound 1657]
[2]
  IC50: 200 to 500 nM
[1]
  IC50: 200 to 500 nM

## COc1cc(C#N)ccc1Oc1nc(C(F)(F)F)nc(C)c1C(=O)Nc1cccc(S(C)(=N)=O)c1 (centres unmarked) [Compound 1743, 4-(4-cyano-2-methoxy-phenoxy)-6-methyl-N-[3-(methylsulfonimidoyl)phenyl]-2-(trifluoromethyl)pyrimidine-5-carboxamide]
[2]
  IC50: ≤ 20 nM
[1]
  IC50: ≤ 20 nM

## COc1c(Oc2nccc(C(F)(F)F)c2C(=O)Nc2cccc(S(C)(=N)=O)c2)ccc(F)c1F (centres unmarked) [Compound 1651]
[2]
  IC50: ≤ 20 nM
[1]
  IC50: ≤ 20 nM

## Cc1ccc2c(Oc3ncc(C(F)(F)F)cc3C(=O)Nc3cccc(S(C)(=O)=O)c3)cccc2n1 [Compound 1625]
[2]
  IC50: 200 to 500 nM
[1]
  IC50: 200 to 500 nM
